For six compounds, mutagenic call results are on record in PubChem BioAssay AID1259407 (Chemical Carcinogenesis Research Information System (CCRIS), 2018).

The data set has as its system CCRIS mutagenicity, Ames/micronucleus/aberration tests. Briefly: CCRIS mutagenicity studies.
The mark [1] stands for this setting: Test System: AMES SALMONELLA TYPHIMURIUM, Strain/Indicator: TA100, Metabolic Activation: NONE, Method: STANDARD PLATE.
[2] abbreviates: Test System: AMES SALMONELLA TYPHIMURIUM, Strain/Indicator: TA98, Metabolic Activation: NONE, Method: PREINCUBATION
[3] abbreviates: Test System: AMES SALMONELLA TYPHIMURIUM, Strain/Indicator: TA100, Metabolic Activation: NONE, Method: PREINCUBATION
[4] abbreviates: Test System: AMES SALMONELLA TYPHIMURIUM, Strain/Indicator: TA1535, Metabolic Activation: NONE, Method: PREINCUBATION
[5] abbreviates: Test System: AMES SALMONELLA TYPHIMURIUM, Strain/Indicator: TA1537, Metabolic Activation: NONE, Method: PREINCUBATION

Calls of active or inactive are those of the source. How the calls were made is not given here.

As for `C/C=C\c1cc(OC)c(OC)cc1OC`, the mutagenic call reads like this: (Test System: AMES SALMONELLA TYPHIMURIUM, Strain/Indicator: TA97, Metabolic Activation: NONE, Method: STANDARD PLATE) “inactive; negative”; (Test System: AMES SALMONELLA TYPHIMURIUM, Strain/Indicator: TA97, Metabolic Activation: RAT, LIVER, S-9, AROCLOR 1254, Method: STANDARD PLATE) “inactive; negative”; (Test System: AMES SALMONELLA TYPHIMURIUM, Strain/Indicator: TA98, Metabolic Activation: NONE, Method: STANDARD PLATE) “inactive; negative”; (Test System: AMES SALMONELLA TYPHIMURIUM, Strain/Indicator: TA98, Metabolic Activation: RAT, LIVER, S-9, AROCLOR 1254, Method: STANDARD PLATE) “inactive; negative”; under setting [1], “inactive; negative”; (Test System: AMES SALMONELLA TYPHIMURIUM, Strain/Indicator: TA100, Metabolic Activation: RAT, LIVER, S-9, AROCLOR 1254, Method: STANDARD PLATE) “inactive; negative”. The mutagenic call is “active; positive” (Test System: AMES SALMONELLA TYPHIMURIUM, Strain/Indicator: TA1535, Metabolic Activation: NONE, Method: STANDARD PLATE); “inactive; negative” (Test System: AMES SALMONELLA TYPHIMURIUM, Strain/Indicator: TA1535, Metabolic Activation: RAT, LIVER, S-9, AROCLOR 1254, Method: STANDARD PLATE); “inactive; negative” (Test System: AMES SALMONELLA TYPHIMURIUM, Strain/Indicator: TA1537, Metabolic Activation: NONE, Method: STANDARD PLATE); “inactive; negative” (Test System: AMES SALMONELLA TYPHIMURIUM, Strain/Indicator: TA1537, Metabolic Activation: RAT, LIVER, S-9, AROCLOR 1254, Method: STANDARD PLATE); “inactive; negative” (Test System: AMES SALMONELLA TYPHIMURIUM, Strain/Indicator: TA1538, Metabolic Activation: NONE, Method: STANDARD PLATE); “inactive; negative” (Test System: AMES SALMONELLA TYPHIMURIUM, Strain/Indicator: TA1538, Metabolic Activation: RAT, LIVER, S-9, AROCLOR 1254, Method: STANDARD PLATE). Moreover, where the note is “Test System: UDS RAT HEPATOCYTES, Strain/Indicator: THY INCORP, Metabolic Activation: NONE, Method: LIQUID SCINTILLATION COUNTING”, the mutagenic call was “active; positive”.

For `C[C@@H](O)[C@H]1C(=O)N2C(C(=O)O)=C([C@H]3CCCO3)S[C@H]12`, the mutagenic call is, setting by setting: under setting [2], “inactive; negative”; (Test System: AMES SALMONELLA TYPHIMURIUM, Strain/Indicator: TA98, Metabolic Activation: S-9, Method: PREINCUBATION) “inactive; negative”; under setting [3], “inactive; negative”; (Test System: AMES SALMONELLA TYPHIMURIUM, Strain/Indicator: TA100, Metabolic Activation: S-9, Method: PREINCUBATION) “inactive; negative”; under setting [4], “inactive; negative”; (Test System: AMES SALMONELLA TYPHIMURIUM, Strain/Indicator: TA1535, Metabolic Activation: S-9, Method: PREINCUBATION) “inactive; negative”. The mutagenic call is, setting by setting: under setting [5], “inactive; negative”; (Test System: AMES SALMONELLA TYPHIMURIUM, Strain/Indicator: TA1537, Metabolic Activation: S-9, Method: PREINCUBATION) “inactive; negative”; (Test System: E.COLI, Strain/Indicator: WP2 UVRA, Metabolic Activation: NONE, Method: PREINCUBATION) “inactive; negative”; (Test System: E.COLI, Strain/Indicator: WP2 UVRA, Metabolic Activation: S-9, Method: PREINCUBATION) “inactive; negative”.

Consider `Cc1ccc(S(=O)(=O)OCc2ccccc2)cc1`, for which, under setting [1], the mutagenic call is “inactive; negative”.

Take `COC(=O)C(c1ccccc1)C1CCCCN1` (configuration not stated): the mutagenic call (End Point: IN VITRO CHROMOSOMAL ABERRATIONS, Test System: CHINESE HAMSTER OVARY CELLS, Metabolic Activation: NONE) is “inactive; negative”; the mutagenic call (End Point: IN VITRO CHROMOSOMAL ABERRATIONS, Test System: CHINESE HAMSTER OVARY CELLS, Metabolic Activation: RAT, LIVER, S-9, AROCLOR 1254) is “active; positive”; the mutagenic call (End Point: In vivo chromosomal aberrations, Test System: Peripheral blood lymphocytes, Species: Monkey, Strain/Sex: Rhesus/Male, Route: Oral) was “inactive; negative”; the mutagenic call (End Point: In vivo micronucleus, Test System: Peripheral blood lymphocytes, Species: Monkey, Strain/Sex: Rhesus/Male, Route: Oral) is “inactive; negative”; the mutagenic call (Test System: AMES SALMONELLA TYPHIMURIUM, Strain/Indicator: TA97, Metabolic Activation: HAMSTER, LIVER, S-9, AROCLOR 1254 (10 OR 30%), Method: PREINCUBATION) was “inactive; negative”; the mutagenic call (Test System: AMES SALMONELLA TYPHIMURIUM, Strain/Indicator: TA97, Metabolic Activation: NONE, Method: PREINCUBATION) is “inactive; negative”. The mutagenic call by setting is: (Test System: AMES SALMONELLA TYPHIMURIUM, Strain/Indicator: TA97, Metabolic Activation: RAT, LIVER, S-9, AROCLOR 1254 (10 OR 30%), Method: PREINCUBATION) “inactive; negative”; (Test System: AMES SALMONELLA TYPHIMURIUM, Strain/Indicator: TA98, Metabolic Activation: HAMSTER, LIVER, S-9, AROCLOR 1254 (10%), Method: PREINCUBATION) “inactive; negative”; (Test System: AMES SALMONELLA TYPHIMURIUM, Strain/Indicator: TA98, Metabolic Activation: HAMSTER, LIVER, S-9, AROCLOR 1254 (30%), Method: PREINCUBATION) “inactive; negative”; under setting [2], “inactive; negative”; (Test System: AMES SALMONELLA TYPHIMURIUM, Strain/Indicator: TA98, Metabolic Activation: RAT, LIVER, S-9, AROCLOR 1254 (10%), Method: PREINCUBATION) “inactive; negative”; (Test System: AMES SALMONELLA TYPHIMURIUM, Strain/Indicator: TA98, Metabolic Activation: RAT, LIVER, S-9, AROCLOR 1254 (30%), Method: PREINCUBATION) “inactive; negative”. The mutagenic call was “inactive; negative” (Test System: AMES SALMONELLA TYPHIMURIUM, Strain/Indicator: TA100, Metabolic Activation: HAMSTER, LIVER, S-9, AROCLOR 1254 (10%), Method: PREINCUBATION); “inactive; negative” (Test System: AMES SALMONELLA TYPHIMURIUM, Strain/Indicator: TA100, Metabolic Activation: HAMSTER, LIVER, S-9, AROCLOR 1254 (30%), Method: PREINCUBATION); “inactive; negative” under setting [3]; “inactive; negative” (Test System: AMES SALMONELLA TYPHIMURIUM, Strain/Indicator: TA100, Metabolic Activation: RAT, LIVER, S-9, AROCLOR 1254 (10%), Method: PREINCUBATION); “inactive; negative” (Test System: AMES SALMONELLA TYPHIMURIUM, Strain/Indicator: TA100, Metabolic Activation: RAT, LIVER, S-9, AROCLOR 1254 (30%), Method: PREINCUBATION); “inactive; negative” (Test System: AMES SALMONELLA TYPHIMURIUM, Strain/Indicator: TA1535, Metabolic Activation: HAMSTER, LIVER, S-9, AROCLOR 1254 (10%), Method: PREINCUBATION). Besides, the mutagenic call is, setting by setting: (Test System: AMES SALMONELLA TYPHIMURIUM, Strain/Indicator: TA1535, Metabolic Activation: HAMSTER, LIVER, S-9, AROCLOR 1254 (30%), Method: PREINCUBATION) “inactive; negative”; under setting [4], “inactive; negative”; (Test System: AMES SALMONELLA TYPHIMURIUM, Strain/Indicator: TA1535, Metabolic Activation: RAT, LIVER, S-9, AROCLOR 1254 (10%), Method: PREINCUBATION) “inactive; negative”; (Test System: AMES SALMONELLA TYPHIMURIUM, Strain/Indicator: TA1535, Metabolic Activation: RAT, LIVER, S-9, AROCLOR 1254 (30%), Method: PREINCUBATION) “inactive; negative”; (Test System: AMES SALMONELLA TYPHIMURIUM, Strain/Indicator: TA1537, Metabolic Activation: HAMSTER, LIVER, S-9, AROCLOR 1254 (10%), Method: PREINCUBATION) “inactive; negative”; under setting [5], “inactive; negative”. For the same compound, the mutagenic call (Test System: AMES SALMONELLA TYPHIMURIUM, Strain/Indicator: TA1537, Metabolic Activation: RAT, LIVER, S-9, AROCLOR 1254 (10%), Method: PREINCUBATION) was “inactive; negative” and the mutagenic call (Test System: Rhesus monkey peripheral blood lymphocytes, Strain/Indicator: HPRT/6-Thioguanine, Metabolic Activation: None, Method: Determined at 3-mo intervals from test subjects exposed to test chemical for 20 mo) is “inactive; negative”.

As for `Clc1cnc2ccccc2c1`, the mutagenic call (Test System: AMES SALMONELLA TYPHIMURIUM, Strain/Indicator: TA100, Metabolic Activation: RAT, LIVER, S-9, PHENOBARBITAL AND 5,6-BENZOFLAVONE, Method: PREINCUBATION) was “inactive; negative”.

Take `OCCS`: the mutagenic call under setting [3] was “inactive; negative”.
